Assays:
[1] = in vitro; conditions: cattle (Bos taurus)
[2] = Cytotoxicity, MTT method, Vero-76 cells; conditions: African green monkey (Cercopithecus aethiops)
[3] = test system: BVDV; assay: microbe, parasite or virus in culture; assay type: cell-based; conditions: Bovine viral diarrhea virus isolates and strains, MDBK, read-out: EC50 BVDV
[4] = test system: CV-B5; assay: microbe, parasite or virus in culture; assay type: cell-based, Human Enterovirus B [coxsackie type B5 (CV-B5)]; conditions: Enterovirus B, CVB5, Vero 76, read-out: EC50 CV-B5
[5] = test system: YFV; assay: microbe, parasite or virus in culture; assay type: cell-based; conditions: Yellow fever virus, BHK, read-out: EC50 YFV
[6] = test system: HIV-1IIIB; assay: microbe, parasite or virus in culture; assay type: cell-based, Human Immunodeficiency Virus type-1 (HIV-1); conditions: Human immunodeficiency virus 1, MT4, read-out: EC50 HIV-1IIIB
[7] = test system: Sb-1, VSV, VV, HSV-1; assay: organism not typed; assay type: cell-based; conditions: Vero 76, read-out: EC50 Sb-1, VSV, VV, HSV-1
[8] = test system: Reo-1; assay: microbe, parasite or virus in culture; assay type: cell-based, Reovirus type-1 (Reo-1); conditions: Reovirus sp., BHK, read-out: EC50 Reo-1
[9] = test system: RSV; assay: microbe, parasite or virus in culture; assay type: cell-based, Human Respiratory Syncytial Virus (RSV) strain A2; conditions: human respiratory syncytial virus, Vero 76, read-out: EC50 RSV
[10] = Cytotoxicity, MTT method, BHK cells; conditions: Syrian hamster (Mesocricetus auratus)
[11] = Cytotoxicity, MTT method, MT-4 cells; conditions: human

Row | SMILES | CC50 [1] [µM] | CC50 at 5 days [2] [µM] | EC50 [3] [µM] | EC50 [4] [µM] | EC50 [5] [µM] | EC50 [6] [µM] | EC50 [7] [µM] | melting point [°C] | EC50 [8] [µM] | EC50 [9] [µM] | CC50 [10] [µM] | CC50 [11] [µM]
1 | O=C(Nc1ccc(F)cc1)Nc1ccc(-n2nc3cc(Cl)c(Cl)cc3n2)cc1 [10i, 1-[4-(5,6-dichloro-2H-benzo[d][1,2,3]triazol-2-yl)phenyl]-3-(4-fluorophenyl)urea] | > 100 | > 100 | > 100 | > 100 | > 100 | > 100 | > 100 | > 290 | > 100 | > 100 | > 100 | > 100
2 | O=C(Nc1ccc(-n2nc3cc(Cl)c(Cl)cc3n2)cc1)c1ccccc1 [8a, N-[4-(5,6-dichloro-2H-benzo[d][1,2,3]triazol-2-yl)phenyl]benzamide] | > 100 | > 100 | > 100 | > 100 | > 100 | > 100 | > 100 | > 290 | > 100 | > 100 | > 100 | > 100
3 | CCC(=O)N(C(=O)CC)c1ccc(-n2nc3cc(Cl)c(Cl)cc3n2)cc1 [6e, N-propionyl-N-[4-(5,6-dichloro-2H-benzo[d][1,2,3]triazol-2-yl)phenyl] propionamide] | 72 | > 100 | > 72 | 61 | > 26 | > 15 | > 100 | 238 to 240 | > 26 | 6 | 26 | 15
4 | CC(=O)N(C(C)=O)c1ccc(-n2nc3cc(Cl)c(Cl)cc3n2)cc1 [6d, N-acetyl-N-[4-(5,6-dichloro-2H-benzo[d][1,2,3]triazol-2-yl)phenyl]acetamide] | 100 | > 100 | > 100 | > 100 | > 72 | > 33 | > 100 | 224 to 226 | > 100 | 40 | 72 | 33
5 | O=C(Nc1ccc(-n2nc3cc(Cl)c(Cl)cc3n2)cc1)c1ccc(C(F)(F)F)cc1 [8g, N-[4-(5,6-dichloro-2H-benzo[d][1,2,3]triazol-2-yl)phenyl]-4-(trifluoromethyl)benzamide] | > 100 | > 100 | 28 | > 100 | > 100 | > 100 | > 100 | 210 to 212 | > 100 | 50 | > 100 | > 100
6 | CCCC(=O)Nc1ccc(-n2nnc3cc(Cl)c(Cl)cc32)cc1 [5c, N-[4-(5,6-dichloro-1H-benzo[d][1,2,3]triazol-1-yl)phenyl]butanamide] | > 100 | 10 | > 100 | 9 | > 100 | > 60 | > 100 | 202 to 204 | > 100 | 4 | > 100 | 60
7 | CC(=O)Nc1ccc(-n2nc3cc(Cl)c(Cl)cc3n2)cc1 [6a, N-[4-(5,6-dichloro-2H-benzo[d][1,2,3]triazol-2-yl)phenyl]acetamide] | > 100 | > 100 | > 100 | > 100 | > 100 | > 100 | > 100 | > 290 | > 100 | > 100 | > 100 | > 100
8 | CCNC(=O)Nc1ccc(-n2nc3cc(Cl)c(Cl)cc3n2)cc1 [10a, 1-[4-(5,6-dichloro-2H-benzo[d][1,2,3]triazol-2-yl)phenyl]-3-ethylurea] | > 100 | > 100 | > 100 | > 100 | > 100 | > 100 | > 100 | > 290 | > 100 | > 100 | > 100 | > 100
9 | Cc1ccc(C(=O)Nc2ccc(-n3nc4cc(Cl)c(Cl)cc4n3)cc2)cc1 [8b, N-[4-(5,6-dichloro-2H-benzo[d][1,2,3]triazol-2-yl)phenyl]-4-methylbenzamide] | > 100 | > 100 | > 100 | > 100 | 73 | > 100 | > 100 | 210 to 213 | > 100 | 27 | > 100 | > 100
10 | O=C(Nc1ccc(-n2nnc3cc(Cl)c(Cl)cc32)cc1)c1ccc(Cl)cc1 [7f, N-[4-(5,6-dichloro-1H-benzo[d][1,2,3]triazol-1-yl)phenyl] 4-chlorobenzamide] | > 100 | > 100 | > 100 | > 100 | > 84 | > 100 | > 100 | 234 to 236 | > 84 | 8 | 84 | > 100
11 | O=C(Nc1ccc(-n2nnc3cc(Cl)c(Cl)cc32)cc1)c1ccccc1 [7a, N-[4-(5,6-dichloro-1H-benzo[d][1,2,3]triazol-1-yl)phenil]benzamide] | > 100 | > 100 | > 100 | > 100 | > 44 | > 100 | > 100 | 250 to 252 | > 44 | 60 | 44 | > 100
12 | CC(=O)Nc1ccc(-n2nnc3cc(Cl)c(Cl)cc32)cc1 [5a, N-[4-(5,6-dichloro-1H-benzo[d][1,2,3]triazol-1-yl)phenyl]acetamide] | 43 | 30 | > 43 | 17 | > 53 | > 35 | > 30 | 209 to 211 | > 53 | 3 | 53 | 35
13 | O=C(NCc1ccccc1)Nc1ccc(-n2nc3cc(Cl)c(Cl)cc3n2)cc1 [10j, 1-[4-(5,6-dichloro-2H-benzo[d][1,2,3]triazol-2-yl)phenyl]-3-benzylurea] | > 100 | > 100 | > 100 | > 100 | > 100 | > 100 | > 100 | > 290 | > 100 | > 100 | > 100 | > 100
14 | O=C(Nc1ccc(-n2nnc3cc(Cl)c(Cl)cc32)cc1)c1ccc([N+](=O)[O-])cc1 [7e, N-[4-(5,6-dichloro-1H-benzo[d][1,2,3]triazol-1-yl)phenyl]-4-nitrobenzamide] | > 100 | > 100 | > 100 | > 100 | > 96 | > 100 | > 100 | 238 to 240 | > 96 | 13 | 96 | > 100
